Data on one compound can be found in patent US20260234116A1, “CYTOTOXIC EPOXYKETONE COMPOUNDS, PRECURSORS, COMPOSITIONS, AND METHODS OF USE” (Memorial Sloan-Kettering Cancer Center, priority 2023, published 2026).

SMILES strings stand for the structures. Like-named read-outs stand apart in the source and are kept apart here.

The test system of assay [1] is EL4 mouse lymphoma. Nature of the assay: Cytotoxicity of epoxyketones, CellTitre-Glo, 48 h. The assay is classed as cell-based. The settings on record: EL4, 48 h. The protocol:
(§1) Cytotoxicity Assays. Cancer cell lines (ATCC: U266 multiple myeloma, EL4 mouse lymphoma, Raji B-cell lymphoma) were cultured in Roswell Park Memorial Institute (RPMI) medium supplemented with 10% fetal bovine serum (FBS), 2 mM L-glutamine, 100 IU/mL penicillin, 100 μg/mL nonessential amino acids, 1 mM sodium pyruvate, and 57 μM β-mercaptoethanol. Cells (90 μL) were seeded in the inner 60 wells of an opaque-wall, clear flat-bottom 96-well plate (Corning/Falcon, 351177) at 20,000 cells per well. The outer perimeter wells were filled with 200 μL PBS to reduce evaporation in the central 60 wells. Epoxyketones 12 (20 mM in DMSO) were diluted in RPMI media to 1 mM (5% DMSO final concentration). Each epoxyketone was then diluted log-fold into 10 concentrations with 5% DMSO in RPMI. Each epoxyketone solution (10 μL) was added to the cells for a 0.5% DMSO final concentration across all wells and final epoxyketone concentrations of 100-0.005 μM. Negative control wells were treated with 10 μL of 5% DMSO in RPMI. Cells were incubated with compounds for 48 h, then cytotoxicity was measured with the CellTitre-Glo assay (Promega G9241).

The test system of assay [2] is Raji B-cell lymphoma. Nature of the assay: Cytotoxicity of epoxyketones, CellTitre-Glo, 48 h. The class given is cell-based. The settings on record: Homo sapiens. The protocol:
as §1

In assay [3] the test system is U266 multiple myeloma. Nature of the assay: Cytotoxicity of epoxyketones, CellTitre-Glo, 48 h. The assay is classed as cell-based. The settings on record: Homo sapiens, U-266, U266, 48 h. The protocol: as §1
The subject of assay [4] is EL4 lymphoma cells. The settings on record: reported (prepared by total synthesis); cited from earlier work.
Assay [5] concerns chymotrypsin-like activity of the proteasome, Jurkat cell lysates. Nature of the assay: Proteasome inhibition assay (abcam Proteasome Activity Assay Kit). The assay is classed as biochemical. The settings on record: 10 μM concentration, 1 h at 37° C. The protocol:
Epoxyketones 12 were analyzed for proteasome inhibition using a Proteasome Activity Assay Kit (abcam ab107921). The protocol was followed as described by the manufacturer, except that the proteasome sample supplied in the kit was diluted by 10-fold more than indicated in the manual to increase the number of samples that could be analyzed per kit. Thus, the supplied proteasome sample was resuspended in 100 μL ddH2O, then further diluted with 900 μL of the supplied assay buffer. The supplied proteasome inhibitor, MG-132 (benzyl [(2S)-4-methyl-1-{[(2S)-4-methyl-1-{[(2S)-4-methyl-1-oxopentan-2-yl]amino}-1-oxopentan-2-yl]amino}-1-oxopentan-2-yl]carbamate; structure illustrated below), was also diluted 10-fold to a working concentration of 1 mM in DMSO. The epoxyketones 12 and epoxomicin positive control (Selleck Chemicals) were also diluted to working stocks of 1 mM in DMSO. Proteasome samples (99 μL) were added to a white, opaque 96-well plate (PerkinElmer, OptiPlate-96) and treated with 1 μL of compound solutions (10 μM final concentration). Samples were incubated for 1 h at 37° C. then analyzed for fluorescence (λ^ex 350 nm, λ^em 440 nm) on a plate reader (Molecular Devices Spectramax M3). Three separate assay kits were used as biological replicates. Data were normalized to the average signal from the no-inhibitor negative control. […]

One may read the IC50 as the point on the concentration scale where inhibition reaches its midpoint. On to `CC(C)CCCCC(=O)N[C@@H](CO)C(=O)N[C@@H](CC(C)C)C(=O)[C@@]1(C)CO1` [Compound 12a, N-[(1S)-2-Hydroxy-1-{[(2S)-4-methyl-1-[(2R)-2-methyloxiran-2-yl]-1-oxopentan-2-yl]carbamoyl}ethyl]-6-methylheptanamide], for which the IC50 in assay [1] (read-out: IC50) is 440 nM; in assay [1] (read-out: log IC50 (converted)), 407 nM; in assay [2] (read-out: IC50), 200 nM; in assay [2] (read-out: log IC50 (converted)), 195 nM; in assay [3] (read-out: IC50), 230 nM; in assay [3] (read-out: log IC50 (converted)) it was 229 nM. Also, the IC50 in assay [4] is 260 ± 50 nM. For the same compound, the “inhibition of proteasome activity” value in assay [5] is “at a level comparable to that of epoxomicin”.
